Experimental data published in patent publication US10856562B2, “Flavor composition and edible compositions containing same” (MARS, INCORPORATED, priority 2013, dated 2020).
Square brackets hold non-standard residues; d marks the D form. Ends that are not written are not given here. pGlu = O=C1CC[C@@H](C(=O)O)N1

System: panelists
Test: Attribute perception scores of flavor enhancers in solution (Example 6)
Type: in vivo, human
Design: key to Metallic / Numbing / Atringent / Salt / Sweet / Sour / Bitter / Umami / Sour, mean evaluation score in solution / Numbing, mean evaluation score in solution / Astringent / Umami FF: 15-point intensity scale, 0 = none, 15 = very strong
Settings: for Astringent, mean evaluation score in solution / Bitter, mean evaluation score in solution / Flinty/Mineral, mean evaluation score in solution / Metallic, mean evaluation score in solution / Numbing, mean evaluation score in solution / Salt, mean evaluation score in solution / Sour, mean evaluation score in solution / Sweet, mean evaluation score in solution / Umami FF, mean evaluation score in solution / Umami, mean evaluation score in solution / Atringent / Bitter / Metallic / Mineral/Flinty / Numbing / Salt / Sour / Sweet / Umami / Umami/brothy: 15-point scale; for Atringent / Bitter / Metallic / Mineral/Flinty / Numbing / Salt / Sour / Sweet / Umami / Umami/brothy: solution
[1] = 1.0 ppb in solution (NaCl, water)
[2] = 1.0 to 100 ppb, listed as UE 30
[3] = 10.0 ppb in solution (NaCl, water)
[4] = 100.0 ppb in solution (NaCl, water)

With [pGlu]-Val-Cys [UE-30] the “Astringent, mean evaluation score in solution” value (“Astringent … in solution” for short) [1] was 0.0, the “Bitter, mean evaluation score in solution” value (shortened to “Bitter … in solution”) [1] was 0.0 and the “Flinty/Mineral, mean evaluation score in solution” value (“Flinty/Mineral … in solution” below) [1] was 0.4. The “Metallic, mean evaluation score in solution” value (from here on “Metallic … in solution”) [1] was 0.0, the “Numbing, mean evaluation score in solution” value (“Numbing … in solution” for short) [1] was 0.0 and the “Salt, mean evaluation score in solution” value [1] was 1.2. For the same substance, the “Sour, mean evaluation score in solution” value [1] was 0.0, the “Sweet, mean evaluation score in solution” value [1] was 0.0 and the “Umami FF, mean evaluation score in solution” value (“Umami FF” below) [1] was 0.1. For the same substance, the “Umami, mean evaluation score in solution” value [1] was 0.0, the “Mineral/Flinty aromatic in solution as the concentration increases” value (1.0 to 100 ppb) was “increases” and the “Salt perception level in solution as the concentration increases” value (1.0 to 100 ppb) was “increases slightly”. For the same substance, the “Umami aromatic in solution as the concentration increases” value (1.0 to 100 ppb) was “shows no distinct pattern”, the “Umami feeling factor in solution as the concentration increases” value (1.0 to 100 ppb) was “increases” and the “Mineral/Flinty aromatic in solution as the concentration increases” value [2] was “increase slightly”. The “Salt perception level in solution as the concentration increases” value [2] was “increase slightly”, the “Astringent … in solution” value [3] was 0.0 and the “Bitter … in solution” value [3] was 0.0. The “Flinty/Mineral … in solution” value [3] was 0.8, the “Metallic … in solution” value [3] was 0.0 and the “Numbing … in solution” value [3] was 0.0. The “Salt, mean evaluation score in solution” value [3] was 1.5, the “Sour, mean evaluation score in solution” value [3] was 0.0 and the “Sweet, mean evaluation score in solution” value [3] was 0.0. The “Umami FF” value [3] was 0.6, the “Umami, mean evaluation score in solution” value [3] was 0.4 and the “Astringent … in solution” value [4] was 0.0. For the same substance, the “Bitter … in solution” value [4] was 0.7, the “Flinty/Mineral … in solution” value [4] was 1.1 and the “Metallic … in solution” value [4] was 0.0. The “Numbing … in solution” value [4] was 0.0, the “Salt, mean evaluation score in solution” value [4] was 1.8 and the “Sour, mean evaluation score in solution” value [4] was 0.0. The “Sweet, mean evaluation score in solution” value [4] was 0.0, the “Umami FF” value [4] was 2.1 and the “Umami, mean evaluation score in solution” value [4] was 0.1. The Atringent (Concentration 1, MAX) was 0.0, the Bitter (Concentration 1, MAX) was 0.0 and the Metallic (Concentration 1, MAX) was 0.0. For the same substance, the Mineral/Flinty (Concentration 1, MAX) was 0.5, the Numbing (Concentration 1, MAX) was 0.0 and the Salt (Concentration 1, MAX) was 1.5. For the same substance, the Sour (Concentration 1, MAX) was 0.0, the Sweet (Concentration 1, MAX) was 0.0 and the Umami (Concentration 1, MAX) was 0.5. It also gave a Umami/brothy (Concentration 1, MAX) of 0.0, an Atringent (Concentration 1, MEAN) of 0.0 and a Bitter (Concentration 1, MEAN) of 0.0. For the same substance, the Metallic (Concentration 1, MEAN) was 0.0, the Mineral/Flinty (Concentration 1, MEAN) was 0.4 and the Numbing (Concentration 1, MEAN) was 0.0. The Salt (Concentration 1, MEAN) was 1.2, the Sour (Concentration 1, MEAN) was 0.0 and the Sweet (Concentration 1, MEAN) was 0.0. The Umami (Concentration 1, MEAN) was 0.1, the Umami/brothy (Concentration 1, MEAN) was 0.0 and the Atringent (Concentration 1, MIN) was 0.0. The Bitter (Concentration 1, MIN) was 0.0, the Metallic (Concentration 1, MIN) was 0.0 and the Mineral/Flinty (Concentration 1, MIN) was 0.0. The Numbing (Concentration 1, MIN) was 0.0, the Salt (Concentration 1, MIN) was 1.0 and the Sour (Concentration 1, MIN) was 0.0. The Sweet (Concentration 1, MIN) was 0.0, the Umami (Concentration 1, MIN) was 0.0 and the Umami/brothy (Concentration 1, MIN) was 0.0. It also gave an Atringent (Concentration 10, MAX) of 0.0, a Bitter (Concentration 10, MAX) of 0.0 and a Metallic (Concentration 10, MAX) of 0.0. The Mineral/Flinty (Concentration 10, MAX) was 1.0, the Numbing (Concentration 10, MAX) was 0.0 and the Salt (Concentration 10, MAX) was 2.0. The Sour (Concentration 10, MAX) was 0.0, the Sweet (Concentration 10, MAX) was 0.0 and the Umami (Concentration 10, MAX) was 1.0. For the same substance, the Umami/brothy (Concentration 10, MAX) was 0.8, the Atringent (Concentration 10, MEAN) was 0.0 and the Bitter (Concentration 10, MEAN) was 0.0. The Metallic (Concentration 10, MEAN) was 0.0, the Mineral/Flinty (Concentration 10, MEAN) was 0.8 and the Numbing (Concentration 10, MEAN) was 0.0. The Salt (Concentration 10, MEAN) was 1.5, the Sour (Concentration 10, MEAN) was 0.0 and the Sweet (Concentration 10, MEAN) was 0.0. The Umami (Concentration 10, MEAN) was 0.6, the Umami/brothy (Concentration 10, MEAN) was 0.4 and the Atringent (Concentration 10, MIN) was 0.0. The Bitter (Concentration 10, MIN) was 0.0, the Metallic (Concentration 10, MIN) was 0.0 and the Mineral/Flinty (Concentration 10, MIN) was 0.0. For the same substance, the Numbing (Concentration 10, MIN) was 0.0, the Salt (Concentration 10, MIN) was 1.0 and the Sour (Concentration 10, MIN) was 0.0. The Sweet (Concentration 10, MIN) was 0.0, the Umami (Concentration 10, MIN) was 0.0 and the Umami/brothy (Concentration 10, MIN) was 0.0. The Atringent (Concentration 100, MAX) was 0.0, the Bitter (Concentration 100, MAX) was 1.5 and the Metallic (Concentration 100, MAX) was 0.0. For the same substance, the Mineral/Flinty (Concentration 100, MAX) was 1.5, the Numbing (Concentration 100, MAX) was 0.0 and the Salt (Concentration 100, MAX) was 2.0. It also gave a Sour (Concentration 100, MAX) of 0.0, a Sweet (Concentration 100, MAX) of 0.0 and a Umami (Concentration 100, MAX) of 3.0. For the same substance, the Umami/brothy (Concentration 100, MAX) was 0.5, the Atringent (Concentration 100, MEAN) was 0.0 and the Bitter (Concentration 100, MEAN) was 0.7. It also gave a Metallic (Concentration 100, MEAN) of 0.0, a Mineral/Flinty (Concentration 100, MEAN) of 1.1 and a Numbing (Concentration 100, MEAN) of 0.0. The Salt (Concentration 100, MEAN) was 1.8, the Sour (Concentration 100, MEAN) was 0.0 and the Sweet (Concentration 100, MEAN) was 0.0. It also gave a Umami (Concentration 100, MEAN) of 2.1, a Umami/brothy (Concentration 100, MEAN) of 0.1 and an Atringent (Concentration 100, MIN) of 0.0. The Bitter (Concentration 100, MIN) was 0.0, the Metallic (Concentration 100, MIN) was 0.0 and the Mineral/Flinty (Concentration 100, MIN) was 0.8. It also gave a Numbing (Concentration 100, MIN) of 0.0, a Salt (Concentration 100, MIN) of 1.0 and a Sour (Concentration 100, MIN) of 0.0. The Sweet (Concentration 100, MIN) was 0.0, the Umami (Concentration 100, MIN) was 1.5 and the Umami/brothy (Concentration 100, MIN) was 0.0.
